Assay [1] addresses E3 ubiquitin-protein ligase Mdm2 (Homo sapiens, UniProt Q00987). Nature of the assay: MDM2-luc reporter signal enhancers, multi-concentration potency testing, MDM2 ubiquitin-protein ligase inhibitor program, whole-cell format, luminescence detection, 384-well microplate (AID 1394).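 Also: MDM2 E3 inhibitors raise luminescence so EC50 is for signal enhancement.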 It is filed as functional.
In assay [2] the test system is HEK293. Nature of the assay: Fluorescence-based counterscreen for potentiators or agonists of NPY-Y2: cell-based high-throughput dose response assay to identify inhibitors of cyclic nucleotide gated ion channel (CNGC) activity. In this assay, the parental HEK293 cell line transfected with a cyclic-nucleotide gated ion channel (CNGC)-based cAMP sensor is used to measure inhibition of isoproterenol-induced CNGC activity by test compound. It is filed as functional. Conditions: Homo sapiens. Background: Counterscreens check selectivity or assay interference.

Assay [3] deals with Streptococcus sp. 'group A'. Description: Streptococcus pyogenes SK(-)GAS viability under kanamycin – luminescence, BacTiterGlo, confirmation, counter-screen for streptokinase expression inhibitor project, dose response (AID 1900). It is filed as functional, organism-based.
The subject of a further assay is Streptococcus. Nature of the assay: GAS UMAA2166 growth inhibition – luminescence, BacTiterGlo, counter-screen for streptokinase expression inhibitor project, dose response (AID 1915).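 Also: potency for reduction of bacterial viability or growth.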 It is filed as functional, organism-based.
Assay [4] is described as follows: M. tuberculosis H37Rv growth inhibitors, H37Rv strain (AID 1626). It is filed as functional.
The target in assay [5] is Luciferin 4-monooxygenase (Photinus pyralis, UniProt P08659). Description: Counter Screen for Luciferase-based Assay Positives. [Related pubchem assays: 620, 618, 411 ].
Sequence of Luciferin 4-monooxygenase (P08659 whole entry): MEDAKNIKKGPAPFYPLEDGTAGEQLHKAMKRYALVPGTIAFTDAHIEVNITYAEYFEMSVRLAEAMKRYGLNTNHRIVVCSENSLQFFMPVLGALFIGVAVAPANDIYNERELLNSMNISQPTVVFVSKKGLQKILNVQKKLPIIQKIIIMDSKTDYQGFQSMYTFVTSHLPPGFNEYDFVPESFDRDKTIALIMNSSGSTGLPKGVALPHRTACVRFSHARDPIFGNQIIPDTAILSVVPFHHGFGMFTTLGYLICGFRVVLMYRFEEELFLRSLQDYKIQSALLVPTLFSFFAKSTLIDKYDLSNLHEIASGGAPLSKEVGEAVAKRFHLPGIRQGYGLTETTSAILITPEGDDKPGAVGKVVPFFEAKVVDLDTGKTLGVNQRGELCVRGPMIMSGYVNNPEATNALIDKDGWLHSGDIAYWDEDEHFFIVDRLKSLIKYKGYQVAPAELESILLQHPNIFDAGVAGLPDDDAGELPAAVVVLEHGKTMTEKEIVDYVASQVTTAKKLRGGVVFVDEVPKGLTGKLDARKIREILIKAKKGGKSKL
The next assay concerns HT-1080. Nature of the assay: HT1080 cell viability loss – fluorescence readout (AID 620). It is filed as functional, cell-based. Conditions: Homo sapiens.
In the next assay the target is T1, Protein skinhead-1 (Caenorhabditis elegans, UniProt P34707).
T1 sequence (P34707 whole entry): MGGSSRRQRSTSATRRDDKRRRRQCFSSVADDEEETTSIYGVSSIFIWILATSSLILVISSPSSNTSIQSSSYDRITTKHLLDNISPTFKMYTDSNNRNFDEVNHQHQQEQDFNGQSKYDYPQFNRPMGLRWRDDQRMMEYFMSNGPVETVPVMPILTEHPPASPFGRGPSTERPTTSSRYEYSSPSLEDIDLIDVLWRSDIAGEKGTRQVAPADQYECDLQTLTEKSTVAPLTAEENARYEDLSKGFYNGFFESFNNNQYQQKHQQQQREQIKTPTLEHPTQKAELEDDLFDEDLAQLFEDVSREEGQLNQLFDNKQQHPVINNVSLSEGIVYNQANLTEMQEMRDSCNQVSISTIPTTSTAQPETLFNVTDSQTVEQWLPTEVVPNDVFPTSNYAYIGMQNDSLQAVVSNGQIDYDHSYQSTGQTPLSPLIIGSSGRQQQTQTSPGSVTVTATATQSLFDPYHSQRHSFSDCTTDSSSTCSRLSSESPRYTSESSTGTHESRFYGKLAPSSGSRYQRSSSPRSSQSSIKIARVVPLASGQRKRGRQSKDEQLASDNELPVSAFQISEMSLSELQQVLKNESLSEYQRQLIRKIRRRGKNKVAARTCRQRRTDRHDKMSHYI
It is filed as functional.

Another assay addresses NADPH oxidase 1 (Homo sapiens, UniProt Q9Y5S8). It is filed as functional, cell-based.
A further assay deals with Ephrin type-A receptor 4 (Mus musculus, UniProt Q03137). Description: EphA4 ligand-binding antagonists – biochemical, colorimetric, mouse EphA4, primary screen (AID 689). It is filed as functional.
Sequence of Ephrin type-A receptor 4 (Q03137 whole entry): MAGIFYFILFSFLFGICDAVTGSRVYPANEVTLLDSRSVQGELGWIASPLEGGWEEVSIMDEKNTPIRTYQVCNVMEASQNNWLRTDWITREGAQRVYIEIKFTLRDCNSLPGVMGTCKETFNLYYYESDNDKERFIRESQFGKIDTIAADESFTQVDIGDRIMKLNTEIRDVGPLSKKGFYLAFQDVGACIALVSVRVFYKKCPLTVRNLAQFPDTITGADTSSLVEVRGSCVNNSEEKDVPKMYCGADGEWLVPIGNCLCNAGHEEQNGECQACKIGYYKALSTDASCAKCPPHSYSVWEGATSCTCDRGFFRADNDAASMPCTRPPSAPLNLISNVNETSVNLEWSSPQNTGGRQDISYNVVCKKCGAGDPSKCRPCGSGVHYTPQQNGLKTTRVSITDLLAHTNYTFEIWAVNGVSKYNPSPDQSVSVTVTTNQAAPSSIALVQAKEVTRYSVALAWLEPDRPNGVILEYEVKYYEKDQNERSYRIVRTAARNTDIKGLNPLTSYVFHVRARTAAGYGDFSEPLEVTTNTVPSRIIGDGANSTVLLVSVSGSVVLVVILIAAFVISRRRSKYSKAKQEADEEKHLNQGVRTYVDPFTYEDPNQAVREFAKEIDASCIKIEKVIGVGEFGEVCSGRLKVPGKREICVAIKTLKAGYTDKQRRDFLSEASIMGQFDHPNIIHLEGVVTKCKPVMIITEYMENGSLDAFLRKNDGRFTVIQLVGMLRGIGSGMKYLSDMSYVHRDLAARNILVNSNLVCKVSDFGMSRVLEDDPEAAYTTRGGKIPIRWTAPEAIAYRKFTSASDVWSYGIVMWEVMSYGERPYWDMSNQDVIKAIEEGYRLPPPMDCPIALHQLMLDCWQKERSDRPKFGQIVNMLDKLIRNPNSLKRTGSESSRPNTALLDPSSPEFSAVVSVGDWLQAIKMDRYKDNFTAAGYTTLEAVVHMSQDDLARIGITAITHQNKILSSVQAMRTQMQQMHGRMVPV
The target of assay [6] is T2, Neuropeptide Y receptor type 2 (Homo sapiens, UniProt P49146).
T2 sequence (P49146 whole entry): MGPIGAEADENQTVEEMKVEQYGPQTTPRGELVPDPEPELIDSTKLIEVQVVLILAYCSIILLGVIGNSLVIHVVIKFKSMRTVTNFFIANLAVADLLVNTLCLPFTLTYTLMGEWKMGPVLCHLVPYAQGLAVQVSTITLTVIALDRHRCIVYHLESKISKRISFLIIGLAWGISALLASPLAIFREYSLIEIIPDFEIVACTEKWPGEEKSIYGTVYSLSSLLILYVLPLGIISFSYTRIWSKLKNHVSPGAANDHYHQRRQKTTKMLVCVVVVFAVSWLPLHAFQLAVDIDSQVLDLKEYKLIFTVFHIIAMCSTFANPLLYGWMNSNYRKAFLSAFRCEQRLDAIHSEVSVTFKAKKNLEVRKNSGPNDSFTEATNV
Description: Fluorescence-based cell-based high-throughput dose response assay for agonists of NPY-Y2. [Related pubchem assays: 1703 (Screening assay (CNGC inhibitors).), 1359 (Screening assay (NPY-Y2 potentiators or agonists).), 1304 (Screening assay (NPY-Y1 potentiators or agonists).), 1710 (Screening assay (NPY-Y2 agonists).), 1791 (Summary AID.)]. It is filed as functional.

The target of assay [7] is T3, Neuropeptide Y receptor type 1 (Homo sapiens, UniProt P25929).
T3 sequence (P25929 whole entry): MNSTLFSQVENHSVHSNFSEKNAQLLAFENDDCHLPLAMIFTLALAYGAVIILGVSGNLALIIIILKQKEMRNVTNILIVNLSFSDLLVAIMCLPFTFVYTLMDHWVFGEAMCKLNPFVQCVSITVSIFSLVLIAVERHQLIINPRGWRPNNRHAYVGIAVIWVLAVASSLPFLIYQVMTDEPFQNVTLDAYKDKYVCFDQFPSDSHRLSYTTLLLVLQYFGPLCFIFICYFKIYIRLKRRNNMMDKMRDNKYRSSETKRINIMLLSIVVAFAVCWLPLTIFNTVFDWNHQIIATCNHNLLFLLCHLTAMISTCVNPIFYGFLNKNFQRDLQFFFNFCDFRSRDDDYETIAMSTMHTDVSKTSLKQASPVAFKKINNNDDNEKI
Description: Fluorescence-based counterscreen for agonists of NPY-Y2: cell-based high-throughput dose response assay for agonists of NPY-Y1. It is filed as functional.

In assay [8] the target is Heat shock protein HSP 90-alpha (Homo sapiens, UniProt P07900). Description: Luminescence-based dose response biochemical high throughput screening assay for inhibitors of the Heat Shock Protein 90 (HSP90). [Related pubchem assays: 1831 (Summary AID.), 1846 (Confirmation screen.), 1789 (Primary screen.)].
Assay [9] concerns the target Peroxisome proliferator-activated receptor gamma/Nuclear receptor corepressor 2 (Homo sapiens, UniProt P37231+Q9Y618). Nature of the assay: Counterscreen for NR2E3 inverse agonists: TR-FRET-based biochemical high throughput dose response assay to identify inverse agonists of the interaction between peroxisome proliferator-activated receptor gamma (PPARg) and nuclear receptor co-repressor 2 (NCOR2). It is filed as functional.

The target in assay [10] is Photoreceptor-specific nuclear receptor (Homo sapiens, UniProt Q9Y5X4). Nature of the assay: ligands suppressing NR2E3 nuclear receptor activity – biochemical, TR-FRET, dose response (AID 463256). It is filed as functional. Background: In TR-FRET formats the signal depends on donor and acceptor labels being close together.
Sequence of Photoreceptor-specific nuclear receptor (Q9Y5X4 whole entry): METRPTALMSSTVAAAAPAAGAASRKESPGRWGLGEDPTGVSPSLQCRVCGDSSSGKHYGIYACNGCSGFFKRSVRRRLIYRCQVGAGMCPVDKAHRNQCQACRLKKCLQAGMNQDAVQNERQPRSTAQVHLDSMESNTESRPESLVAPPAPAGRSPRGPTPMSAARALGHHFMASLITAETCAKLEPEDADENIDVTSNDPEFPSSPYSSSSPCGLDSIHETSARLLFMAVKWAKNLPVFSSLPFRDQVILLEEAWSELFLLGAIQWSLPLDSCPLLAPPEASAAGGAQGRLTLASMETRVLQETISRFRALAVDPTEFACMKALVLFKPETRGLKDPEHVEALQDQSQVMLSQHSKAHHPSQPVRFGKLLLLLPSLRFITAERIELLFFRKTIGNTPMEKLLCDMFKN
For assay [11], the target named is T4, Acyl-homoserine lactone acylase PvdQ (Pseudomonas aeruginosa (strain LESB58), UniProt Q9I194).
T4 sequence (Q9I194 whole entry): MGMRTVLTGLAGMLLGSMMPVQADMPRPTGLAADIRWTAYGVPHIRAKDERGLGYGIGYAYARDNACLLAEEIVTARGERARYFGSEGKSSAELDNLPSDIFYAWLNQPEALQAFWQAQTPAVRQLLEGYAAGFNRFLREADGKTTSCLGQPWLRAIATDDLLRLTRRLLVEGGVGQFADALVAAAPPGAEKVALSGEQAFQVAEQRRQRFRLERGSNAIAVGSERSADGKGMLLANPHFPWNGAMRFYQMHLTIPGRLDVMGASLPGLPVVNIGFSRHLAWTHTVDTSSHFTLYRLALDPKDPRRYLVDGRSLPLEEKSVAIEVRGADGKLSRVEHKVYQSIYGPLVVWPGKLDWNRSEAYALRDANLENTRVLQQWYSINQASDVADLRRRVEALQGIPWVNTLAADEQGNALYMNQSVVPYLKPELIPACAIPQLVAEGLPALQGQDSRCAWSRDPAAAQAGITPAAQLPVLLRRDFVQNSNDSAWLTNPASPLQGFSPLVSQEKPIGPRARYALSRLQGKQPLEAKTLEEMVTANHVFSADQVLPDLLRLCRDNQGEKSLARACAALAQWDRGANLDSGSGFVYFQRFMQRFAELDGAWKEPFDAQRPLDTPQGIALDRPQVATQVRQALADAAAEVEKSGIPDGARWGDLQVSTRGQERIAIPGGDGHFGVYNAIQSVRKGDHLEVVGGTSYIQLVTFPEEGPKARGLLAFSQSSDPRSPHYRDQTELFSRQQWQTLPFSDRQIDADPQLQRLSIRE
Nature of the assay: PvdQ acylase enzyme activity blockers – biochemical, fluorescence, plate reader and imaging, cherry-picks, dose response (AID 493231).

Assay [12] concerns HEK293. Description: EBV LMP1 TES2 canonical NF-kB signalling blockers – cell-based, HEK293, luciferase, cherry-pick, dose response (AID 588343). It is filed as functional. Conditions: Homo sapiens.
Assay [13] concerns the target SWI/SNF-related matrix-associated actin-dependent regulator of chromatin subfamily A member 2 (Homo sapiens, UniProt P51531). Description: Luminescence-based cell-based high throughput dose response assay to identify activators of the function of SWI/SNF related, matrix associated, actin dependent regulator of chromatin, subfamily a, member 2 (SMARCA2, BRM). It is filed as functional.

The nature of assay [14]: Counterscreen for activators of the function of SWI/SNF related, matrix associated, actin dependent regulator of chromatin, subfamily a, member 2 (SMARCA2, BRM): Luminescence-based cell-based high throughput dose response assay to identify non-selective compounds using the VP16 reporter assay. It is filed as functional.
The nature of assay [15]: mitochondrial function rescue without frataxin homolog – Friedreich's ataxia, plus single-dose screen, dose response (AID 1465).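 Also: yeast depleted of Yfh1p frataxin homolog grown on glycerol needing respiration; WST-1 tetrazolium dye reduction as measure of cellular dehydrogenase metabolic activity.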 It is filed as functional.

Active and inactive are the calls of the source.

Sequence of E3 ubiquitin-protein ligase Mdm2 (Q00987 whole entry): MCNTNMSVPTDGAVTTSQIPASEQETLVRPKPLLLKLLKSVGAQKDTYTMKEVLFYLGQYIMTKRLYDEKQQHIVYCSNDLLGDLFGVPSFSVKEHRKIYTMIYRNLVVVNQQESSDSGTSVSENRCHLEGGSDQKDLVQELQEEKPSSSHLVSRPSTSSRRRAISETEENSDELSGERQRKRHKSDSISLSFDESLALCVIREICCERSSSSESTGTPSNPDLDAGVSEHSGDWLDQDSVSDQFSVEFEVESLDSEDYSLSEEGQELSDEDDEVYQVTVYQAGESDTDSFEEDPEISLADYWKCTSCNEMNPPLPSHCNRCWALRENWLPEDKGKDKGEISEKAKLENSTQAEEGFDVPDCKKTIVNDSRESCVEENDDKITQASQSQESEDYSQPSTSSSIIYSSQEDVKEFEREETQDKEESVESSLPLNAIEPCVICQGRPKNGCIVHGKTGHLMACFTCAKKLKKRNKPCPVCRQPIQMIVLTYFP
Sequence of NADPH oxidase 1 (Q9Y5S8 whole entry): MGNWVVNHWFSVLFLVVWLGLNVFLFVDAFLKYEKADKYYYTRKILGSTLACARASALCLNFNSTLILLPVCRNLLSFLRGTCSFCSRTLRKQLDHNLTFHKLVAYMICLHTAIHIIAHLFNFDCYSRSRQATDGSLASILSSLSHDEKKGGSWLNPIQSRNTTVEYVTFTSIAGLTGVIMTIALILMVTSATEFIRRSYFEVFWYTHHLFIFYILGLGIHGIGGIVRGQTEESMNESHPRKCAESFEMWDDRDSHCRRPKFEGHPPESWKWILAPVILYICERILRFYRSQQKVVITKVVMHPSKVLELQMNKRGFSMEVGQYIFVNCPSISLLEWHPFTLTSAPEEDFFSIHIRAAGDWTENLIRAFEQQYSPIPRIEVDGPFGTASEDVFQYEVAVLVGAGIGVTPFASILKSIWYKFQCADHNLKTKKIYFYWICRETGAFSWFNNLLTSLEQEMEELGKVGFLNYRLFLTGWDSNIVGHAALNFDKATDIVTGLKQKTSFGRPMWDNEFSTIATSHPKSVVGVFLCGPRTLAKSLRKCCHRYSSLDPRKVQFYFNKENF
Sequence of SWI/SNF-related matrix-associated actin-dependent regulator of chromatin subfamily A member 2 (P51531 whole entry): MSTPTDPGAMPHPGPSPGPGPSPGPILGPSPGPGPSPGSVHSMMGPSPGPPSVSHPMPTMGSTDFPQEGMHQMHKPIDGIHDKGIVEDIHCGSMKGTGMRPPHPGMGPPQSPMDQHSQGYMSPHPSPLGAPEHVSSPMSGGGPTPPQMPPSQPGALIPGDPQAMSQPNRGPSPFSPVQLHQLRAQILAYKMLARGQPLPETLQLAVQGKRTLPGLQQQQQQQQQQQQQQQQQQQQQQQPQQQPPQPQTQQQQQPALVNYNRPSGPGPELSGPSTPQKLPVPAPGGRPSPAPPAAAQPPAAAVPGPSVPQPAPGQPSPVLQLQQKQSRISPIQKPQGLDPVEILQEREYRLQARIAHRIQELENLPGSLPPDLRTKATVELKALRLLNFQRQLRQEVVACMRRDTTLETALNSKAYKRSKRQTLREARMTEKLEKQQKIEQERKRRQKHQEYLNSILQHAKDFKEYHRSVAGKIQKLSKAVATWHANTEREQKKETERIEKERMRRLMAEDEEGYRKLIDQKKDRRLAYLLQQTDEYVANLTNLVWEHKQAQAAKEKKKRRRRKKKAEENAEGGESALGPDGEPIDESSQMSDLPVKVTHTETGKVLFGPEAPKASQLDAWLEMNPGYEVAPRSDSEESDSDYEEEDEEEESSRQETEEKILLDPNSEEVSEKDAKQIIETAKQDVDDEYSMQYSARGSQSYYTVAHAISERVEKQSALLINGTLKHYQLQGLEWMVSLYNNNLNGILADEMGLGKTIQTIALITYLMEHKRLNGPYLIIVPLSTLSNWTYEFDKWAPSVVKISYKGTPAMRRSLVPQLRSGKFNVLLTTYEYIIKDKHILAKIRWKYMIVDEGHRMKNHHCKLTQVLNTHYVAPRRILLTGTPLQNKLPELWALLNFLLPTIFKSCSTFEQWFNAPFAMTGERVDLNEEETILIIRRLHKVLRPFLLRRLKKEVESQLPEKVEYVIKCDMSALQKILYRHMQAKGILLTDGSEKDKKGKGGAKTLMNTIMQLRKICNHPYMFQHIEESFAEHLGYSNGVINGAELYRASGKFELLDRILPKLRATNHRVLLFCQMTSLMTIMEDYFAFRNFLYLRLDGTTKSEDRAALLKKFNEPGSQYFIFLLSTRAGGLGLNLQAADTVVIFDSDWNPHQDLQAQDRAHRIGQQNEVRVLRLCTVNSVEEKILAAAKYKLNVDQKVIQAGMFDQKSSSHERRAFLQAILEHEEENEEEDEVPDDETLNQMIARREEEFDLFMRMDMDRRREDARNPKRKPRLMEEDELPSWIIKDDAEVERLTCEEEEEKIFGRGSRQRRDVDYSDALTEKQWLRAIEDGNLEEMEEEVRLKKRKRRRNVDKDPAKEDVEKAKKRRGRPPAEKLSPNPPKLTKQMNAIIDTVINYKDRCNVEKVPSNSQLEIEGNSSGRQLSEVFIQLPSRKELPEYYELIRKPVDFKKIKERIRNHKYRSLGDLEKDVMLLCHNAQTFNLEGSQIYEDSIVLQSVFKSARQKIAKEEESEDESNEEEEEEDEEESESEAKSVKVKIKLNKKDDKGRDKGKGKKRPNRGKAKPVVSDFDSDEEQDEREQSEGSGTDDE

The EC50 is the midpoint of the concentration-response curve. As to `CCOC(=O)Cn1nnnc1C`, the EC50 in assay [1] is 827 µM (not active).
As for `O=[N+]([O-])c1cc(C(F)(F)F)cc([N+](=O)[O-])c1NCCN=C(S)Nc1ccc(Cl)c(Cl)c1`, the EC50 is 7.47 µM (active) in the assay on HEK293 [2], 4.03 µM (active) in assay [3] and 6.5 µM (active) in the assay with Streptococcus.
By IC50 is commonly meant the concentration that gives 50% inhibition. For `Cc1cc(C)cc(OCc2nnc(SCC(=O)OC(C)C)o2)c1`, the IC50 in [4] is > 100 µM (active).
Take `Cc1ccc(S(=O)(=O)N2CCN(C(=O)CC(C)C)CC2)cc1`: in assay [1], the EC50 is 7.17 µM (not active).
With `O=c1c2ccccc2nnn1CSc1nnc2sc3ccccc3n12`, the values for the EC50 (in assay [5]; in the assay on HT-1080) were 0.52 µM (active) and > 50 µM (not active), respectively.
In the case of `COc1ccccc1NC(=O)CN1CCN(C2c3ccccc3-c3ccccc32)CC1`, the IC50 in [4] was > 100 µM (active); at Protein skinhead-1, > 100 µM (inactive).
In the case of `O=C(Oc1ccc([N+](=O)[O-])cc1)c1cc2ccccc2s1`, the IC50 at NADPH oxidase 1 was > 17 µM (not active).
In the case of `CCc1cccc2c(C(=O)CSc3nnc(-c4ccoc4C)n3C)c[nH]c12`, on Ephrin type-A receptor 4, the IC50 is 12.7 µM (active).
For the compound `O=C(NNC(=O)Nc1ccc(Cl)cc1)Nc1ccc(Cl)cc1`, at NADPH oxidase 1, the IC50 was > 17 µM (not active).
As to `Cc1cc2c(cc1C)N(C(=O)CSC1=NCCS1)C(C)(C)c1ssc(=S)c1-2`, the EC50 in the assay with HEK293 [2] is reported as > 35.4 µM (not active); in [6], 32 µM (not active); in [7], 22.2 µM (not active).
On to `Cc1cc2ccccc2n1CCNC(=O)c1ccccc1`, for which the IC50 in assay [8] is 2.52 µM (active); at Ephrin type-A receptor 4, 32.7 µM (active); on Protein skinhead-1, > 100 µM (inactive).
`CC(=O)c1sc(NC(=O)CCCOc2ccc(Cl)cc2)nc1C`: the IC50 in [9] was 3.5 µM (active); in [10], 4.49 µM (active).
By AC50 is commonly meant the midpoint of the concentration-response curve, whichever way the signal moves. Regarding `CCOc1ccc(NC(=O)c2cnsn2)cc1`, the EC50 in [5] is 48.3 µM (active); with HT-1080 it was > 50 µM (not active); in [13] it was > 91.2 µM (inactive); in assay [14] it was > 91.2 µM (inactive). In addition, the AC50 in assay [11] is 81 µM (active); in the assay on HEK293 [12], 5.39 µM (active).
Take `COc1cc([N+](=O)[O-])cc(/C=N\NC(=O)C2COc3ccccc3O2)c1O` (stereo not given): the EC50 in [3] is 2.97 µM (active); in assay [15] it was > 100 µM (active); in the assay on Streptococcus, 3.33 µM (active).
